From patent US11925643B2, “Toll-like receptor 4 (TLR4) inhibitors and use thereof” (MOR RESEARCH APPLICATIONS LTD., priority 2018, dated 2024)
No end group written: not given here.

Legend:
IL-1β mRNA = IL-1β mRNA level by RT-qPCR in hypoxic cardiomyocytes; format: cell-based; conditions: hypoxic conditions
Procedure: Real-time RT-PCR experiments were performed in duplicates on an ABI 7900 instrument (Applied Biosystems™) using Taqman™ Master Mix (Applied Biosystems™). The average threshold cycles (Ct) of the duplicates were used to calculate the relative expression levels of the following genes: TLR4 (Applied Biosystems™ assay primer ID: Mm00569848_m1 Tlr4), TLR2 (assay primer ID: Mm01769726_m1 Tlr2), TNF-α (assay primer ID: Mm00443260_g1 Tnf) and IL-1β (assay primer ID: Mm00434228_m1 II1b) in vitro and in vivo following hypoxia or ischemia, respectively. The reference gene was TBP and the primer used was derived from mouse TATA-box binding protein (Applied Biosystems™ assay primer ID: Mm00446973_m1 Tbp). Amounts of TLR2, TLR4, TNF-α and IL-1β mRNAs in each sample were calculated relative to TBP mRNA, based on the corresponding Cts, as Relative Quantity (RQ) values, and normalized taking as 1 a randomly selected sample of the control group (TBP mRNA). […]
Decoy peptides represented by compounds PM1-PM10 were tested in vitro for their ability to decrease the level of CK and LDH released by stressed cardiomyocytes following exposure to LPS or hypoxic stimulation, and further evaluated for their ability to affect the level of IL-1β and TLR4 mRNA, and expression of IκB and TLR4 proteins, according to the protocols described in Materials and Methods and in Example 5 herein above.

TLR4 mRNA = TLR4 mRNA level by RT-qPCR in hypoxic cardiomyocytes; format: cell-based; conditions: hypoxic conditions
Procedure: Real-time RT-PCR experiments were performed in duplicates on an ABI 7900 instrument (Applied Biosystems™) using Taqman™ Master Mix (Applied Biosystems™). The average threshold cycles (Ct) of the duplicates were used to calculate the relative expression levels of the following genes: TLR4 (Applied Biosystems™ assay primer ID: Mm00569848_m1 Tlr4), TLR2 (assay primer ID: Mm01769726_m1 Tlr2), TNF-α (assay primer ID: Mm00443260_g1 Tnf) and IL-1β (assay primer ID: Mm00434228_m1 II1b) in vitro and in vivo following hypoxia or ischemia, respectively. The reference gene was TBP and the primer used was derived from mouse TATA-box binding protein (Applied Biosystems™ assay primer ID: Mm00446973_m1 Tbp). Amounts of TLR2, TLR4, TNF-α and IL-1β mRNAs in each sample were calculated relative to TBP mRNA, based on the corresponding Cts, as Relative Quantity (RQ) values, and normalized taking as 1 a randomly selected sample of the control group (TBP mRNA). Calculation were performed using the Applied Biosystems Analysis™ software (StepOnePlus V2.2.2). All mRNA scores are presented in arbitrary units.
Next, peptidomimetics of SEQ ID NOs:1 and 2 were tested for their ability to affect the expression of TLR4. The level of TLR4 mRNA was measured by real-time reverse transcriptase polymerase chain reaction (RT-qPCR) method as described in Materials and Methods. The possible effect of both compounds on expression levels of TLR2 mRNA was used as a negative control.

primary cardiomyocytes [1] = experiment: CK and LDH release by primary cardiomyocytes under hypoxia (MI like); format: cell-based, Rat; conditions: 20 μM
Procedure: (§1) Rat hearts (1-2 days old) were removed under sterile conditions and washed three times in phosphate-buffered saline (PBS) to remove excess blood cells. The hearts were minced and then gently agitated in RBD (a solution of proteolytic enzymes (Biological Institute, Ness-Ziona, Israel) prepared from fig tree extract, and diluted 1:100 in Ca^2+- and Mg^2+-free PBS) for a few cycles of 10 min each. Dulbecco's modified Eagle's medium (Biological Industries, Kibbutz Beit Haemek, Israel) containing 10% horse serum was added to supernatant suspensions containing the dissociated cells. The mixture was centrifuged at 1400 rpm for 4 min. The supernatant phase was discarded, and the cells were re-suspended. The cell suspension was diluted to 1.0×10^6 cells/ml, unless stated otherwise, and 1.5 ml of the suspension was placed in 35-mm plastic culture dishes collagen- or gelatin-coated, or on coated cover glasses. The cultures were incubated in a humidified atmosphere of 5% CO2 and 95% air at 37° C.
Using a vacuum pump, the oxygen rich air was evacuated from an incubator containing plates with cell cultures, and a 100% Argon atmosphere was let in, while maintaining a temperature of 37° C. The cell cultures were washed with PBS twice to remove glucose from the medium. Hypoxic treated cells were cultures in PBS without glucose. These cells lasted for 180 minutes.
(§2) Primary cardiomyocytes which were obtained by method described above, were treated with exemplary decoy peptides described herein. After 30 minutes of incubation, sepsis like (LPS treatment for 6 hours), or myocardial infarction (MI) like (hypoxia for 3 hours) conditions were imposed to measure the release of CK and LDH to the medium and determine the potential cardioprotective effect of the tested decoy peptides. Cytotoxicity and level of cell damage were assessed by spectrophotometric measurement of lactate dehydrogenase (LDH) and creatine kinase (CK) activities (at 30° C.). Results are presented as CK and LDH release in arbitrary units (a.u.)
(§3) Activity of LDH and CK was determined in the cell-culture medium (25 μl) transferred into 96-well plates, using commercial L-LDH/CK kits (such as those manufactured, e.g., by Sigma-Aldrich, BioVision™ or Thermo Fisher Scientific®).
(§4) Primary cardiomyocytes were treated with peptides and peptidomimetics of SEQ ID NOs:1-7 provided at concentrations ranging from 1 μM to 20 μM. Following 30 minutes of incubation, sepsis like (LPS treatment for 6 hours) or MI like (hypoxia for 3 hours) conditions were induced to determine the potential cardioprotective effect of the tested compounds. Creatine kinase (CK) and lactate dehydrogenase (LDH) activity were assayed to determine the level of cellular damage and cell protection effect. The experimental procedure is described in Materials and Methods above. Results are presented as CK and LDH release in arbitrary units (a.u.).

primary cardiomyocytes [2] = experiment: CK and LDH release by primary cardiomyocytes under LPS treatment (sepsis like); format: cell-based, Rat; conditions: LPS treatment; 20 μM
Procedure: as §1, §2, §3, §4

[3] = system: TLR4-driven inflammatory response; conditions: mice, cited from earlier work
TLR4 signaling = conditions: primary murine macrophages; cited from earlier work

| Molecule | inhibition of IL-1β mRNA production (IL-1β mRNA) [fold] | inhibition of TLR4 mRNA production (TLR4 mRNA) [fold] | CK release (primary cardiomyocytes [1]) | LDH release (primary cardiomyocytes [1]) | CK release (primary cardiomyocytes [2]) | LDH release (primary cardiomyocytes [2]) | LPS-induced activation of MyD88-dependent and TRIF-dependent cytokines and MAPKs [3] | survival ([3]; lethal LPS dose) | circulating cytokine levels ([3]; sublethal dose of LPS) | TLR4 signaling (TLR4 signaling) |
| --- | --- | --- | --- | --- | --- | --- | --- | --- | --- | --- |
| Cc1cn(Cc2ccccc2)c(=O)nc1NCCC(C)C [PM2, 1-benzyl-4-(isopentylamino)-5-methylpyrimidin-2(1H)-one] | 1.3 | 2 | significant reduction | significant reduction | no significant effect | no significant effect |  |  |  |  |
| IVFAEMPCG (Ac-IVFAEMPCG) [prior art decoy peptide derived from the TRAM TIR domain (Piao et al., 2013); used N-acetylated as positive control] |  |  |  |  |  |  | inhibited | dramatically improving | significantly diminishing | inhibited |
